Experimental data published in ChEMBL document CHEMBL1136945, “Antimalarial activity of thiosemicarbazones and purine derived nitriles” (Bioorg Med Chem Lett, 2009).

Experiments:
Format in all cases: functional, organism-based
Plasmodium falciparum [1] = experiment: (§1) Antimalarial activity as reduced parasitaemia after 72 hrs against chloroquine-resistant Plasmodium falciparum K1 infected human O+ erythrocytes by DNA stain without pepstatin; details: K1, 72 h
Plasmodium falciparum [2] = experiment: Antimalarial activity as reduced parasitaemia after 72 hrs against chloroquine-sensitive Plasmodium falciparum 3D7 infected human O+ erythrocytes by DNA stain without pepstatin; details: 3D7, 72 h
Plasmodium falciparum [3] = experiment: as §1; details: K1, 72 h; remark: listed apart in the source
Plasmodium falciparum [4] = experiment: Antimalarial activity as reduced parasitaemia after 72 hrs against chloroquine-sensitive Plasmodium falciparum 3D7 infected human O+ erythrocytes by DNA stain with pepstatin; details: 3D7, 72 h

Compound	EC50 (Plasmodium falciparum [1])	EC50 (Plasmodium falciparum [2])	EC50 (Plasmodium falciparum [3])	EC50 (Plasmodium falciparum [4])
NC(=S)N/N=C(/CCc1ccccc1)c1cccc(Cl)c1	> 30 µM	> 30 µM	> 30 µM	
NC(=S)N/N=C(/C=C/c1ccccc1)c1cccc(C(F)(F)F)c1	30 µM	30 µM	30 µM	30 µM
NC(=S)N/N=C(/CCc1ccccc1)c1ccccc1	> 30 µM	> 30 µM	> 30 µM	
NC(=S)N/N=C(/CCc1ccccc1)c1cc(C(F)(F)F)cc(C(F)(F)F)c1	30 µM	30 µM	30 µM	30 µM
CCC(C)CNc1nc(C#N)nc2c1NCN2C1CCCC1 (stereo not given)	> 30 µM	> 30 µM	> 30 µM	> 30 µM
NC(=S)N/N=C(/c1ccccc1)c1cc(Cl)cc(Cl)c1	> 30 µM	> 30 µM	> 30 µM	
CC(Nc1nc(C#N)nc2c1NCN2Cc1ccccc1)c1ccccc1 (stereo not given)	> 30 µM	> 30 µM	> 30 µM	30 µM
CCCCCCNc1nc(C#N)nc2c1NCN2CC1CCCCC1	> 30 µM	> 30 µM	> 30 µM	> 30 µM
CCCCCCNc1nc(C#N)nc2c1NCN2C1CCCC1	> 30 µM	> 30 µM	> 30 µM	> 30 µM
CCCCCCNc1nc(C#N)nc2c1NCN2Cc1ccccc1	> 30 µM	> 30 µM	> 30 µM	> 30 µM
CC(Nc1nc(C#N)nc2c1NCN2C1CCCC1)c1ccccc1 (stereo not given)	30 µM	> 30 µM	30 µM	> 30 µM
N#Cc1nc(NCc2ccc(Cl)cc2)c2c(n1)N(C1CCCC1)CN2	> 30 µM	> 30 µM	30 µM	30 µM
CCCCN1CNc2c(NCc3cccc(C)c3)nc(C#N)nc21	> 30 µM	> 30 µM	> 30 µM	> 30 µM
N#Cc1nc(NCc2ccccc2)c2c(n1)N(Cc1ccccc1)CN2	> 30 µM	> 30 µM	> 30 µM	> 30 µM
CCCCN1CNc2c(NCc3ccccc3)nc(C#N)nc21	> 30 µM	> 30 µM	> 30 µM	> 30 µM
CCCCN1CNc2c(NCc3ccc(C)cc3)nc(C#N)nc21	> 30 µM	> 30 µM	> 30 µM	> 30 µM
CCCCN1CNc2c(NCc3ccc(OC)cc3)nc(C#N)nc21	> 30 µM	> 30 µM	> 30 µM	> 30 µM
Cc1ccc(CNc2nc(C#N)nc3c2NCN3CCCO)cc1	> 30 µM	> 30 µM	> 30 µM	> 30 µM
CCCCN1CNc2c(NCc3ccc(F)cc3)nc(C#N)nc21	> 30 µM	> 30 µM	> 30 µM	> 30 µM
N#Cc1nc(NCc2ccc(Cl)cc2)c2c(n1)N(CC1CCCCC1)CN2	> 30 µM	> 30 µM	> 30 µM	> 30 µM
N#Cc1nc(NCc2ccccc2)c2c(n1)N(C1CCCCO1)CN2 (stereo not given)	> 30 µM	> 30 µM	> 30 µM	> 30 µM

Compound	EC50 (Plasmodium falciparum [1])	EC50 (Plasmodium falciparum [2])	EC50 (Plasmodium falciparum [3])	EC50 (Plasmodium falciparum [4])
CC(O)CN1CNc2c(NCc3ccc(Cl)c(Cl)c3)nc(C#N)nc21 (stereo not given)	> 30 µM	> 30 µM	> 30 µM	30 µM
N#Cc1nc(NCc2ccc(Cl)c(Cl)c2)c2c(n1)N(CC(O)CO)CN2 (stereo not given)	> 30 µM	> 30 µM	> 30 µM	> 30 µM
CCCCN1CNc2c(NCCc3ccccc3)nc(C#N)nc21	> 30 µM	> 30 µM	> 30 µM	> 30 µM
N#Cc1nc(NCc2ccc(F)cc2)c2c(n1)N(CCCCO)CN2	> 30 µM	> 30 µM	> 30 µM	> 30 µM
N#Cc1nc(NCc2ccc(F)cc2)c2c(n1)N(Cc1ccccc1)CN2	> 30 µM	> 30 µM	> 30 µM	> 30 µM
N#Cc1nc(NCCc2ccccc2)c2c(n1)N(Cc1ccccc1)CN2	> 30 µM	> 30 µM	> 30 µM	> 30 µM
N#Cc1nc(NCc2ccc(Cl)c(Cl)c2)c2c(n1)N(Cc1ccccc1)CN2	> 30 µM	> 30 µM	30 µM	30 µM
N#Cc1nc(NCCc2ccccc2)c2c(n1)N(c1cccnc1)CN2	> 30 µM	> 30 µM	> 30 µM	> 30 µM
COc1ccc(CN2CNc3c(NCc4ccccc4)nc(C#N)nc32)cc1	> 30 µM	> 30 µM	> 30 µM	> 30 µM
N#Cc1nc(NCc2ccc(Cl)cc2)c2c(n1)N(CCCCO)CN2	> 30 µM	> 30 µM	> 30 µM	> 30 µM
COCCCN1CNc2c(NCc3ccc(Cl)c(Cl)c3)nc(C#N)nc21	> 30 µM	> 30 µM	> 30 µM	30 µM
COc1ccc(CN2CNc3c(NCc4ccc(Cl)cc4)nc(C#N)nc32)cc1	> 30 µM	> 30 µM	> 30 µM	30 µM
N#Cc1nc(NCc2ccc(Cl)cc2)c2c(n1)N(Cc1cccc(C(F)(F)F)c1)CN2	> 30 µM	> 30 µM	30 µM	30 µM
COC(CCN1CNc2c(NCc3ccc(Cl)c(Cl)c3)nc(C#N)nc21)OC	> 30 µM	> 30 µM	> 30 µM	30 µM
N#Cc1nc(NCc2ccc(Cl)c(Cl)c2)c2c(n1)N(CCCC(=O)O)CN2	> 30 µM	> 30 µM	> 30 µM	> 30 µM
N#Cc1nc(NCc2cccc(-c3cc(Cl)cc(Cl)c3)c2)c2ncn(CCCO)c2n1	> 30 µM	> 30 µM	> 30 µM	> 30 µM
N#Cc1nc(NCc2cccc(-c3ccc(Cl)c(Cl)c3)c2)c2ncn(CCCO)c2n1	> 30 µM	> 30 µM	> 30 µM	> 30 µM
N#Cc1nc(NCc2ccc(Br)cc2)c2c(n1)N(CCCc1ccccc1)CN2	> 30 µM	> 30 µM	> 30 µM	> 30 µM
CCCCN1CNc2c(NCc3ccc(Cl)c(Cl)c3)nc(C#N)nc21	> 30 µM	> 30 µM	> 30 µM	30 µM
N#Cc1nc(NCc2cccc(Cc3cccc(Cl)c3)c2)c2ncn(CCCO)c2n1	> 30 µM	> 30 µM	> 30 µM	> 30 µM
CN(C)c1cccc(-c2cccc(CNc3nc(C#N)nc4c3ncn4CCCO)c2)c1	> 30 µM	> 30 µM	> 30 µM	> 30 µM

Compound	EC50 (Plasmodium falciparum [1])	EC50 (Plasmodium falciparum [2])	EC50 (Plasmodium falciparum [3])	EC50 (Plasmodium falciparum [4])
CC(C)Oc1ccccc1-c1cccc(CNc2nc(C#N)nc3c2ncn3CCCO)c1	30 µM	30 µM	30 µM	30 µM
CCC(C)CNc1nc(C#N)nc2c1NCN2Cc1ccccc1 (stereo not given)	> 30 µM	> 30 µM	> 30 µM	30 µM
Cc1cccc(CNc2nc(C#N)nc3c2NCN3C2CCCC2)c1	> 30 µM	> 30 µM	> 30 µM	> 30 µM
CCCCN1CNc2c(NCc3ccc(Br)cc3)nc(C#N)nc21	30 µM	> 30 µM	> 30 µM	30 µM
CCCCN1CNc2c(NCc3ccc(Cl)cc3)nc(C#N)nc21	30 µM	> 30 µM	> 30 µM	30 µM
CCCCN1CNc2c(NC(C)c3ccccc3)nc(C#N)nc21 (stereo not given)	30 µM	> 30 µM	30 µM	30 µM
N#Cc1nc(NCc2ccc(-c3ccsc3)cc2)c2ncn(CCCO)c2n1	30 µM	30 µM	30 µM	30 µM
Cc1ccc(/C(=N/NC(N)=S)c2cc(C(F)(F)F)cc(C(F)(F)F)c2)cc1	30 µM	30 µM	30 µM	30 µM
Cc1ccccc1-c1cccc(CNc2nc(C#N)nc3c2ncn3CCCO)c1	30 µM	30 µM	30 µM	30 µM
COc1ccc(CNc2nc(C#N)nc3c2NCN3Cc2ccccc2)cc1	> 30 µM	> 30 µM	> 30 µM	> 30 µM
Cc1ccc(CNc2nc(C#N)nc3c2NCN3Cc2ccccc2)cc1	> 30 µM	> 30 µM	> 30 µM	> 30 µM
N#Cc1nc(NCc2ccc(Cl)c(Cl)c2)c2c(n1)N(CCCO)CN2	> 30 µM	> 30 µM	> 30 µM	> 30 µM
N#Cc1nc(NCc2ccc(-c3cccs3)cc2)c2ncn(CCCO)c2n1	30 µM	30 µM	30 µM	30 µM
COCC(CN1CNc2c(NCc3ccc(Cl)c(Cl)c3)nc(C#N)nc21)OC (stereo not given)	> 30 µM	> 30 µM	> 30 µM	30 µM
N#Cc1nc(NCc2ccccc2)c2c(n1)N(CCCO)CN2	> 30 µM	> 30 µM	> 30 µM	> 30 µM
N#Cc1nc(NCc2ccc(Br)cc2)c2c(n1)N(Cc1ccccc1)CN2	30 µM	> 30 µM	30 µM	30 µM
N#Cc1nc(NCc2ccccc2)c2c(n1)N(Cc1cccc(C(F)(F)F)c1)CN2	30 µM	30 µM	30 µM	30 µM
COc1ccc(CNc2nc(C#N)nc3c2NCN3C2CCCC2)cc1	> 30 µM	> 30 µM	> 30 µM	> 30 µM
N#Cc1nc(NCc2ccc(Cl)cc2)c2c(n1)N(Cc1ccccc1)CN2	> 30 µM	> 30 µM	30 µM	30 µM
CC(=O)Nc1ccc(CNc2nc(C#N)nc3c2ncn3CCCO)cc1	30 µM	30 µM	30 µM	30 µM
